From publication PMC12399242 (Acta Pharmaceutica Sinica. B, 2025)

What was measured:
HIV-1 F227L + V106A = experiment: microbe, parasite or virus in culture; assay type: cell-based; settings: Human immunodeficiency virus 1, MT4, read-out: EC50 F227L + V106A
HIV-1 L100I = experiment: Antiviral activity against HIV-1 mutant L100I in MT-4 cells; assay type: cell-based; settings: Human immunodeficiency virus 1, MT4, read-out: EC50 L100I
HIV-1 E138K = experiment: Antiviral activity against HIV-1 mutant E138K in MT-4 cells; assay type: cell-based; settings: Human immunodeficiency virus 1, MT4, read-out: EC50 E138K
WT HIV-1 RT = WT HIV-1 RT (Human immunodeficiency virus type 1 group M subtype B, UniProt P03366); experiment: Inhibition of WT HIV-1 RT polymerase activity
Protocol: The anti-HIV-1 activity of A1–A24 and B1–B22 at the cellular or enzyme level were evaluated following our previously reported method[15].

[1] = system: HIV-1 K103N + Y181C (RES056); experiment: Antiviral activity against HIV-1 double mutant K103N + Y181C (RES056) in MT-4 cells; assay type: cell-based; settings: Human immunodeficiency virus 1, MT4, read-out: EC50 K103N + Y181C
HIV-1 Y188L = experiment: Antiviral activity against HIV-1 mutant Y188L in MT-4 cells; assay type: cell-based; settings: Human immunodeficiency virus 1, MT4, read-out: EC50 Y188L
HIV-1 K103N = experiment: Antiviral activity against HIV-1 mutant K103N in MT-4 cells; assay type: cell-based; settings: Human immunodeficiency virus 1, MT4, read-out: EC50 K103N
HIV-1 Y181C = experiment: Antiviral activity against HIV-1 mutant Y181C in MT-4 cells; assay type: cell-based; settings: Human immunodeficiency virus 1, MT4, read-out: EC50 Y181C
in vitro = settings: human, CC50
Source text: (§1) Inspired by our previous research on heteroaromatic-biphenyl-DAPYs[15], the 4-cyanophenyl group on the biphenyl moiety was replaced with a privileged 4-pyridyl group for further evaluation.

HIV-1 (IIIB) = experiment: microbe, parasite or virus in culture; assay type: cell-based; settings: for EC50: mean ± SD, n ≥ 3; for SI (IIIB): selectivity index, ratio CC50/EC50
Source text: as §1

[2] = Human immunodeficiency virus 1, IIIB, MT4, WT HIV-1, protection of MT-4 cells against HIV-induced cytopathogenicity

| Compound | CC50 (in vitro) | EC50 (HIV-1 (IIIB); [2]) | SI (IIIB) (HIV-1 (IIIB)) | further results |
| --- | --- | --- | --- | --- |
| Cc1cc(-c2ccc(C#N)cc2)ccc1Nc1nc(Nc2ccc(C#N)cc2)ncc1F [A9, 4′-((2-((4-Cyanophenyl)amino)-5-fluoropyrimidin-4-yl)amino)-3′-methyl-[1,1′-biphenyl]-4-carbonitrile] |  |  |  | EC50 (HIV-1 F227L + V106A): 37700 nM; EC50 (HIV-1 L100I): 17 ± 6.7 nM; EC50 (HIV-1 E138K): 10 ± 1.9 nM; IC50 (WT HIV-1 RT): 36 ± 4.8 nM; EC50 [1]: 24900 nM; EC50 (HIV-1 Y188L): 1620 ± 382 nM; EC50 (HIV-1 K103N): 7.1 ± 1.9 nM; EC50 (HIV-1 Y181C): 9.3 ± 0.7 nM |
| Cc1cc(-c2ccncc2)ccc1Nc1nc(Nc2ccc(C#N)cc2)ncc1F [A21, 4-((5-Fluoro-4-((2-methyl-4-(pyridin-4-yl)phenyl)amino)pyrimidin-2-yl)amino)benzonitrile] | > 51000 nM | 6.1 ± 1.3 nM | >8421 |  |
| COc1cc(-c2ccncc2)ccc1Nc1nc(Nc2ccc(C#N)cc2)ncc1F [A22, 4-((5-Fluoro-4-((2-methoxy-4-(pyridin-4-yl)phenyl)amino)pyrimidin-2-yl)amino)benzonitrile] | > 49000 nM | 8 ± 2.7 nM | >6154 |  |
| N#Cc1ccc(Nc2ncc(F)c(Nc3c(F)cc(-c4ccncc4)cc3F)n2)cc1 [A23, 4-((4-((2,6-Difluoro-4-(pyridin-4-yl)phenyl)amino)-5-fluoropyrimidin-2-yl)amino)benzonitrile] | 21000 ± 18000 nM | 7.6 ± 1.2 nM |  |  |
| Cc1cc(-c2ccncc2)cc(C)c1Nc1nc(Nc2ccc(C#N)cc2)ncc1F [A24, 4-((4-((2,6-Dimethyl-4-(pyridin-4-yl)phenyl)amino)-5-fluoropyrimidin-2-yl)amino)benzonitrile] |  |  |  | EC50 (HIV-1 F227L + V106A): 244 ± 146 nM; EC50 (HIV-1 L100I): 4.1 ± 3.7 nM; EC50 (HIV-1 E138K): 8.3 ± 5.4 nM; IC50 (WT HIV-1 RT): 39 ± 2.4 nM; EC50 [1]: 63 ± 12 nM; EC50 (HIV-1 Y188L): 90 ± 27 nM; EC50 (HIV-1 K103N): 1.9 ± 0.5 nM; EC50 (HIV-1 Y181C): 9.3 ± 5.6 nM |
| N#Cc1ccc(Nc2ncc(Cl)c(Oc3ccc(-c4ccc(C#N)cc4)cc3F)n2)cc1 [B1, 4′-((5-Chloro-2-((4-cyanophenyl)amino)pyrimidin-4-yl)oxy)-3′-fluoro-[1,1′-biphenyl]-4-carbonitrile] | 39000 ± 12000 nM | 8.4 ± 3.4 nM | 4572 |  |
| N#Cc1ccc(Nc2ncc(Cl)c(Oc3ccc(-c4ccc(C#N)cc4)cc3Cl)n2)cc1 [B2, 3′-Chloro-4′-((5-chloro-2-((4-cyanophenyl)amino)pyrimidin-4-yl)oxy)-[1,1′-biphenyl]-4-carbonitrile] | 35000 ± 7300 nM | 8.7 ± 2 nM | 3949 |  |
| Cc1cc(-c2ccc(C#N)cc2)ccc1Oc1nc(Nc2ccc(C#N)cc2)ncc1Cl [B3, 4′-((5-Chloro-2-((4-cyanophenyl)amino)pyrimidin-4-yl)oxy)-3′-methyl-[1,1′-biphenyl]-4-carbonitrile] | > 46000 nM | 7.1 ± 1.6 nM | >6542 |  |
| COc1cc(-c2ccc(C#N)cc2)ccc1Oc1nc(Nc2ccc(C#N)cc2)ncc1Cl [B4, 4′-((5-Chloro-2-((4-cyanophenyl)amino)pyrimidin-4-yl)oxy)-3′-methoxy-[1,1′-biphenyl]-4-carbonitrile] | 11000 ± 3700 nM | 26 ± 13 nM | 412 |  |
| Cc1cc(-c2ccc(C#N)cc2)cc(C)c1Oc1nc(Nc2ccc(C#N)cc2)ncc1Cl [B5, 4′-((5-Chloro-2-((4-cyanophenyl)amino)pyrimidin-4-yl)oxy)-3′,5′-dimethyl-[1,1′-biphenyl]-4-carbonitrile] | 39000 ± 9100 nM | 11 ± 4.2 nM | 3478 |  |
| N#Cc1ccc(Nc2ncc(Cl)c(Nc3ccc(-c4ccc(C#N)cc4)cc3F)n2)cc1 [B6, 4′-((5-Chloro-2-((4-cyanophenyl)amino)pyrimidin-4-yl)amino)-3′-fluoro-[1,1′-biphenyl]-4-carbonitrile] | > 45000 nM | 12 ± 2.7 nM | >3911 |  |
| N#Cc1ccc(Nc2ncc(Cl)c(Nc3ccc(-c4ccc(C#N)cc4)cc3Cl)n2)cc1 [B7, 3′-Chloro-4′-((5-chloro-2-((4-cyanophenyl)amino)pyrimidin-4-yl)amino)-[1,1′-biphenyl]-4-carbonitrile] | > 273000 nM | 46 ± 13 nM | >6026 |  |
| Cc1cc(-c2ccc(C#N)cc2)ccc1Nc1nc(Nc2ccc(C#N)cc2)ncc1Cl [B8, 4′-((5-Chloro-2-((4-cyanophenyl)amino)pyrimidin-4-yl)amino)-3′-methyl-[1,1′-biphenyl]-4-carbonitrile] | > 46000 nM | 8.2 ± 1.6 nM | >5556 |  |
| COc1cc(-c2ccc(C#N)cc2)ccc1Nc1nc(Nc2ccc(C#N)cc2)ncc1Cl [B9, 4′-((5-Chloro-2-((4-cyanophenyl)amino)pyrimidin-4-yl)amino)-3′-methoxy-[1,1′-biphenyl]-4-carbonitrile] | 236000 ± 24000 nM | 104 ± 68 nM | 2261 |  |
| N#Cc1ccc(Nc2ncc(Cl)c(Nc3c(F)cc(-c4ccc(C#N)cc4)cc3F)n2)cc1 [B10, 4′-((5-Chloro-2-((4-cyanophenyl)amino)pyrimidin-4-yl)amino)-3′,5′-difluoro-[1,1′-biphenyl]-4-carbonitrile] |  |  |  | EC50 (HIV-1 F227L + V106A): 959 ± 327 nM; EC50 (HIV-1 L100I): 17 ± 8.1 nM; EC50 (HIV-1 E138K): 5.7 ± 2.8 nM; IC50 (WT HIV-1 RT): 31 ± 2.2 nM; EC50 [1]: 676 ± 349 nM; EC50 (HIV-1 Y188L): 187 ± 52 nM; EC50 (HIV-1 K103N): 5 ± 2.4 nM; EC50 (HIV-1 Y181C): 11 ± 1.5 nM |
| Cc1cc(-c2ccc(C#N)cc2)cc(C)c1Nc1nc(Nc2ccc(C#N)cc2)ncc1Cl [B11, 4′-((5-Chloro-2-((4-cyanophenyl)amino)pyrimidin-4-yl)amino)-3′,5′-dimethyl-[1,1′-biphenyl]-4-carbonitrile] |  | ≤ 5.3 nM | 47,357 | EC50 (HIV-1 F227L + V106A): 164 ± 71 nM; EC50 (HIV-1 L100I): 5.5 ± 1.8 nM; EC50 (HIV-1 E138K): 12 ± 6.9 nM; IC50 (WT HIV-1 RT): 53 nM; EC50 [1]: 102 ± 24 nM; EC50 (HIV-1 Y188L): 33 ± 6.7 nM; EC50 (HIV-1 K103N): 4.4 ± 1.1 nM; EC50 (HIV-1 (IIIB); WT HIV-1, protection of MT-4 cells against HIV-induced cytopathogenicity): 5.3 ± 1.8 nM; EC50 (HIV-1 Y181C): 9.8 ± 3.3 nM |
| N#Cc1ccc(Nc2ncc(Cl)c(Oc3ccc(-c4ccncc4)cc3F)n2)cc1 [B12, 4-((5-Chloro-4-(2-fluoro-4-(pyridin-4-yl)phenoxy)pyrimidin-2-yl)amino)benzonitrile] | > 48000 nM | 7.7 ± 1.9 nM | >6173 |  |
| N#Cc1ccc(Nc2ncc(Cl)c(Oc3ccc(-c4ccncc4)cc3Cl)n2)cc1 [B13, 4-((5-Chloro-4-(2-chloro-4-(pyridin-4-yl)phenoxy)pyrimidin-2-yl)amino)benzonitrile] | > 46000 nM | 6.2 ± 1.6 nM | >7477 |  |
| Cc1cc(-c2ccncc2)ccc1Oc1nc(Nc2ccc(C#N)cc2)ncc1Cl [B14, 4-((5-Chloro-4-(2-methyl-4-(pyridin-4-yl)phenoxy)pyrimidin-2-yl)amino)benzonitrile] | > 48000 nM | 48 ± 22 nM | >1005 |  |
| COc1cc(-c2ccncc2)ccc1Oc1nc(Nc2ccc(C#N)cc2)ncc1Cl [B15, 4-((5-Chloro-4-(2-methoxy-4-(pyridin-4-yl)phenoxy)pyrimidin-2-yl)amino)benzonitrile] | > 47000 nM | 6.7 ± 2.3 nM | >6897 |  |
| Cc1cc(-c2ccncc2)cc(C)c1Oc1nc(Nc2ccc(C#N)cc2)ncc1Cl [B16, 4-((5-Chloro-4-(2,6-dimethyl-4-(pyridin-4-yl)phenoxy)pyrimidin-2-yl)amino)benzonitrile] | 243000 ± 62000 nM | 105 ± 51 nM | 2327 |  |
| N#Cc1ccc(Nc2ncc(Cl)c(Nc3ccc(-c4ccncc4)cc3F)n2)cc1 [B17, 4-((5-Chloro-4-((2-fluoro-4-(pyridin-4-yl)phenyl)amino)pyrimidin-2-yl)amino)benzonitrile] | > 48000 nM | 142 ± 14 nM | >342 |  |
| N#Cc1ccc(Nc2ncc(Cl)c(Nc3ccc(-c4ccncc4)cc3Cl)n2)cc1 [B18, 4-((5-Chloro-4-((2-chloro-4-(pyridin-4-yl)phenyl)amino)pyrimidin-2-yl)amino)benzonitrile] | > 46000 nM | 83 ± 69 nM | >563 |  |
| Cc1cc(-c2ccncc2)ccc1Nc1nc(Nc2ccc(C#N)cc2)ncc1Cl [B19, 4-((5-Chloro-4-((2-methyl-4-(pyridin-4-yl)phenyl)amino)pyrimidin-2-yl)amino)benzonitrile] | > 48000 nM | 44 ± 9.7 nM | >1122 |  |
| COc1cc(-c2ccncc2)ccc1Nc1nc(Nc2ccc(C#N)cc2)ncc1Cl [B20, 4-((5-Chloro-4-((2-methoxy-4-(pyridin-4-yl)phenyl)amino)pyrimidin-2-yl)amino)benzonitrile] | 164000 ± 51000 nM | 536 ± 326 nM | 306 |  |
| N#Cc1ccc(Nc2ncc(Cl)c(Nc3c(F)cc(-c4ccncc4)cc3F)n2)cc1 [B21, 4-((5-Chloro-4-((2,6-difluoro-4-(pyridin-4-yl)phenyl)amino)pyrimidin-2-yl)amino)benzonitrile] | 1300 ± 300 nM | 2 ± 0.7 nM | 680 |  |
| Cc1cc(-c2ccncc2)cc(C)c1Nc1nc(Nc2ccc(C#N)cc2)ncc1Cl [B22, 4-((5-Chloro-4-((2,6-dimethyl-4-(pyridin-4-yl)phenyl)amino)pyrimidin-2-yl)amino)benzonitrile] | 260000 ± 6500 nM | 8.9 ± 0.7 nM | 29,634 |  |
